Source: patent US20240271223A1, “BIOMARKERS FOR A THERAPY COMPRISING AN ANGIOGENESIS INHIBITOR” (Eisai R&D Management Co., Ltd., priority 2021, published 2024)

Assays:
[1] = system: PLC/PRF/5 xenograft HCC model and two HCC patient-derived xenograft models; conditions: cited from earlier work
[2] = system: 12 mouse syngeneic tumor models; assay: Antitumor activity of lenvatinib on mouse syngeneic tumor models (ΔT/C); assay type: in vivo; conditions: 10 mg/kg once daily oral; ΔT/C on day 15; BNL, Renca and B16-F10 vs other nine models; p<0.05, t-test; FIG. 3c
Protocol: The twelve mouse cell lines shown in Table 1 were subcutaneously inoculated into the right lateral side of 7-week-old immune competent mice. Mice were randomly grouped when the tumor size reached approximately 100 mm^3. Lenvatinib (10 mg/kg once daily) was orally administered for mice of lenvatinib treatment group. The day on which treatment was started was designated as day 1. The values of antitumor activity (ΔT/C) were calculated as ΔT/ΔC×100 where ΔT and ΔC are changes in the mean tumor volumes for drug treated and untreated control groups, respectively. When the tumor volumes decreased from the initial tumor volumes, ΔT/C values were calculated as (Tt−T1)/T1×100, where Tt and T1 are the mean tumor volumes of drug treated group on day t after the start of treatment and day 1, respectively. ΔT/C on day 15 was used for the analysis.

[3] = system: 12 mouse syngeneic tumor models; assay: Changes in MVD gene score of 12 mouse syngeneic tumor models with or without angiogenesis inhibitor treatment (RNA-seq); assay type: in vivo; conditions: tumors collected on day 8, p<0.05, t-test, FIG. 7; for Gene score compared with non-treatment group: lenvatinib 10 mg/kg once daily oral, aflibercept 5 mg/kg twice a week i.p.
Protocol: Twelve mouse cell lines were cultured with appropriate medium (Table 1). Cells were harvested and suspended with Hanks' Balanced Salt Solution (HBSS) and subcutaneously inoculated into right lateral side of 7-week old immune competent mice. Tumor size was measured by an electronic digital caliper (Digimatic Caliper, Mitsutoyo Corporation) and calculated with a formula; (short diameter (mm))^2×(long diameter (mm))/2. Tumors around 100 mm^3 were resected and soaked with RNA later. mRNA extracted from tumor samples were followed by RNA-seq using Illumina NovaSeq™ (GENEWIZ) to quantify expression levels of mRNA. Sequenced reads were subjected to quality assessment by FastQC (version 0.11.5). Illumina adaptor sequences and low quality bases were trimmed by using Trimmomatic (version 0.36). Filtered reads were mapped to the mouse genome (GRCm38/mm10 and Ensembl 88) by using STAR (v2.5.2b). Gene expression levels in transcripts per million (TPM) for all samples were estimated by using RSEM (v1.2.31). Using the same tumor samples, CD31 was stained with anti-CD31 antibody (Clone SZ31, dianova) to detect endothelial cells in IHC analysis. Microvessel density (MVDCD31) score was calculated by dividing the number of CD31 positive blood vessels by tumor area using HALO (Indica Lab).
We developed a gene score by the following steps. First, we extracted 1086 genes that were highly expressed in an endothelial cell population using scRNA-seq data of the Hepa 1-6 mouse HCC model. Next, we extracted genes with TOP20 Pearson's correlation coefficient between its logarithm-transformed expression values (log2 (TPM+1)) and MVD (IHCCD31) using 12 syngeneic tumor models that were measured by RNA-seq and IHC, respectively. Of these 20 genes, we selected seven genes that had known association with vasculature from literature search and added 3 well-known endothelial cell markers to the gene list (Table 2). We further selected genes whose expression were specific to endothelial cell cluster by manually checking t-SNE plots of scRNA-seq data of Hepa 1-6 HCC model. Finally, six genes were chosen as mouse MVD gene set. The gene score of sample i was calculated as follows: […]
The twelve mouse cell lines shown in Table 1 were subcutaneously inoculated into right lateral side of 7-week-old immune competent mice. Mice were randomly grouped into non-treatment and lenvatinib treatment groups when the tumor size reached approximately 100 mm^3 (n=3 for each group). Lenvatinib (10 mg/kg once daily) was orally administered for mice of lenvatinib treatment group and aflibercept (5 mg/kg twice a week) was administered intraperitoneally for mice of aflibercept treatment group for a week. The day on which treatment was started was designated as day 1. […]

Row | Molecule | tumor microvessel density [1] | antitumor activity (ΔT/C) in lenvatinib sensitive models compared to other nine tumor models [2] | Gene score compared with non-treatment group [3] | number of tumor models (of 12) in which gene score was decreased vs non-treatment group [3]
1 | COc1cc2nccc(Oc3ccc(NC(=O)NC4CC4)c(Cl)c3)c2cc1C(N)=O [lenvatinib, 4-(3-chloro-4-(cyclopropylaminocarbonyl)aminophenoxy)-7-methoxy-6-quinolinecarb oxamide] | reduced tumor microvessel density | more antitumor activity | decreased | 10 tumor models
2 | aflibercept: inhibitor of VEGF which binds to circulating VEGF and acts as VEGF-trap, leading to inhibiting tumor angiogenesis |  |  | significantly decreased | eight
